Test results: patent US9802899B2, “Heterocyclic compounds as pesticides” (BAYER CROPSCIENCE AG, priority 2012, dated 2017)

Legend:
[1] = Determination of the log P values by HPLC (formic acid method); type: physicochemical; conditions: reversed-phase column (C 18), acidic range (pH 3.4), 55° C.; for chromatographic logP: reversed-phase HPLC column (C 18)
Experimental: 1) Description of Method for Determination of the Log P Values (Formic Acid Method)
Eluents for determination in the acidic range (pH 3.4):
Eluent A: acetonitrile+1 ml of formic acid/liter. Eluent B: water+0.9 ml of formic acid/liter.
The lambda max values were determined in the maxima of the chromatographic signals using the UV spectra from 200 nm to 400 nm.

[2] = system: Boophilus microplus; assay: Boophilus microplus test (BOOPMI injection); type: in vivo; conditions: application rate 20 μg/animal; injection into the abdomen; after 7 days by laying of fertile eggs
Experimental: Boophilus microplus Test (BOOPMI Injection)
(§1) Solvent: dimethyl sulphoxide
To produce a suitable preparation of active compound, 10 mg of active compound are mixed with 0.5 ml of solvent, and the concentrate is diluted with solvent to the desired concentration.
The active compound solution is injected into the abdomen (Boophilus microplus), and the animals are transferred into dishes and stored in a climate-controlled room.
The activity is assessed after 7 days by laying of fertile eggs. Eggs whose fertility is not visible from the outside are stored in a climate-controlled cabinet until the larvae hatch after about 42 days. An efficacy of 100% means that none of the ticks has laid any fertile eggs; 0% means that all eggs are fertile.

[3] = system: Boophilus microplus; assay: Boophilus microplus test (DIP); type: in vivo; conditions: application rate 100 ppm, after 7 days by laying of fertile eggs, 100% = no fertile eggs
Experimental: Boophilus microplus Test (DIP)
Test animals: adult engorged Boophilus microplus females of the SP-resistant Parkhurst strain
as §1
10 mg of active compound are dissolved in 0.5 ml of dimethyl sulphoxide. For the purpose of preparing a suitable formulation, the active compound solution is diluted with water to the concentration desired in each case.
This active compound preparation is pipetted into tubes. 8-10 ticks are transferred into a further tube with holes. The tube is immersed into the active compound formulation, and all ticks are completely wetted. After the liquid has run out, the ticks are transferred onto filter discs in plastic dishes and stored in a climate-controlled room.
The activity is assessed after 7 days by laying of fertile eggs. Eggs whose fertility is not visible from the outside are stored in a climate-controlled cabinet until the larvae hatch. An efficacy of 100% means that none of the ticks has laid any fertile eggs.

[4] = system: Meloidogyne incognita; assay: Meloidogyne incognita test (MELGIN); type: in vivo; conditions: Meloidogyne incognita, 336 h; application rate 20 ppm; lettuce in sand; after 14 days; read-out: nematicidal effect (formation of galls)
Experimental: Meloidogyne incognita Test (MELGIN)
Solvent: 125.0 parts by weight of acetone
To prepare a suitable active compound preparation, 1 part by weight of active compound is mixed with the stated amount of solvent and the concentrate is diluted with water to the desired concentration.
Vessels are filled with sand, active compound solution, an egg/larvae suspension of the root-knot nematode (Meloidogyne incognita) and lettuce seeds. The lettuce seeds germinate and the plants develop. On the roots, galls are formed.
After 14 days, the nematicidal effect in % is determined by the formation of galls. 100% means that no galls have been found; 0% means that the number of galls on the treated plants corresponds to the untreated control.

[5] = system: Cooperia curticei; assay: Cooperia curticei test (COOPCU); type: in vivo; conditions: Cooperia curticei, 120 h, read-out: efficacy (kill)
[6] = system: Musca domestica; assay: Musca domestica test (MUSCDO); type: in vivo; conditions: adult flies, after 2 days
Experimental: Musca domestica Test (MUSCDO)
as §1
To produce a suitable preparation of active compound, 10 mg of active compound are mixed with 0.5 ml of dimethyl sulphoxide, and the concentrate is diluted with water to the desired concentration.
Vessels containing a sponge treated with the active compound formulation of the desired concentration are populated with adult Musca domestica.
After 2 days, the kill in % is determined. 100% means that all of the flies have been killed; 0% means that none of the flies have been killed.

[7] = system: Phaedon cochleariae; assay: Phaedon cochleariae spray test (PHAECO); type: in vivo; conditions: foliar, 168 h, application rate 500 g/ha, larvae on Chinese cabbage leaf discs, after 7 days, read-out: efficacy
[8] = system: Ctenocephalides felis; assay: Ctenocephalides felis oral test (CTECFE); type: in vivo; conditions: application rate 100 ppm in citrated cattle blood; adult fleas; after 2 days
Experimental: Ctenocephalides felis—Oral Test (CTECFE)
Solvent: 1 part by weight of dimethyl sulphoxide
To produce a suitable preparation of active compound, 10 mg of active compound are mixed with 0.5 ml of dimethyl sulphoxide. A portion of the concentrate is diluted with citrated cattle blood, and the desired concentration is prepared.
About 20 unfed adult fleas (Ctenocephalides felis) are placed into a chamber which is closed at the top and bottom with gauze. A metal cylinder whose bottom end is closed with a parafilm is placed onto the chamber. The cylinder contains the blood/active compound preparation, which can be imbibed by the fleas through the Parafilm membrane.
After 2 days, the kill in % is determined 100% means that all fleas have been killed; 0% means that none of the fleas have been killed.

[9] = Determination of the log P values by HPLC (formic acid method); type: physicochemical; conditions: printed as (neutral)
[10] = system: Haemonchus contortus; assay: Haemonchus contortus test (HAEMCO); type: in vivo; conditions: application rate 4 ppm; larvae; after 5 days
Experimental: Haemonchus contortus Test (HAEMCO)
as §1
To produce a suitable preparation of active compound, 10 mg of active compound are mixed with 0.5 ml of dimethyl sulphoxide, and the concentrate is diluted with Ringer solution to the desired concentration.
Vessels containing the active compound preparation of the desired concentration are populated with about 40 larvae of the red stomach worm (Haemonchus contortus).
After 5 days, the kill in % is determined 100% means that all of the larvae have been killed; 0% means that none of the larvae have been killed.

log P [1]	SMILES	efficacy [3] [%]	chromatographic logP [1]	efficacy (kill) ([6]; application rate 20 ppm) [%]	pest or weed control at 500 g/ha [7] [%]	efficacy (kill) [8] [%]	further results
2.76	O=C(Nc1ccn(-c2ccccc2Br)n1)c1ncccc1Cl [Compound I-1-55]						efficacy [2]: 80%
	O=C(Nc1ccn(-c2c(F)cccc2F)n1)c1ncccc1C(F)(F)F [Compound I-1-91, N-[1-(2,6-Difluorophenyl)-1H-pyrazol-3-yl]-3-(trifluoromethyl)pyridine-2-carboxamide]	90	2.22	85	100	80	pest or weed control at 20 ppm [4]: 100%; pest or weed control at 100 ppm ([5]; application rate 100 ppm, nematode larvae, after 5 days): 90%
2.45	O=C(Nc1ccn(-c2c(F)cccc2F)n1)c1nccnc1C(F)(F)F [Compound I-1-99]	100		90		80	
	O=C(Nc1ccn(-c2ccccc2Br)n1)c1c(F)cccc1C(F)(F)F [Compound I-1-335]						log P (neutral) [9]: 3.02
1.98	O=C(Nc1ccn(-c2ncccc2Cl)n1)c1cccnc1C(F)(F)F [Compound I-1-562]						efficacy (kill) ([6]; application rate 100 ppm): 90%
	O=C(Nc1cnn(-c2ccccc2Cl)n1)c1ccccc1C(F)(F)F [Compound I-2-1, N-[2-(2-Chlorophenyl)-2H-1,2,3-triazol-4-yl]-2-(trifluoromethyl)benzamide]	100	3.02		100	90	efficacy (kill) [10]: 80%; pest or weed control at 4 ppm [5]: 100%
